Experimental data taken from ChEMBL document CHEMBL1201862, “PubChem BioAssay data set” (2004).
Each block holds one compound with its values, some of them ahead of it. Active and inactive are the calls of the source.

Experiments:
[1] = loss of viability in HepG2 cells – cell-based, CellTiter-Glo, cherry-picked, cytotoxicity control for Shn3 inhibitor project, dose response (AID 624134); assay type: functional
[2] = reduction of Shn3 3'UTR-driven luciferase in osteoblasts – cell-based, Clone20 osteoblasts, firefly luciferase, cherry-picked, dose response (AID 624132); assay type: functional;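 also: firefly luciferase luminescence from reporter carrying the Shn3 3'UTR in osteoblasts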
[3] = Shn3 3'UTR reporter signal decrease – cell-based, Clone20 osteoblasts, firefly luciferase, cherry-pick, set 2, Schnurri-3 inhibitor project, dose response (AID 720490); assay type: functional;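 also: actives lower the luminescence signal as inhibitors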
[4] = non-specific 3'UTR reporter inhibition in Clone20-Shn3RL – cell-based, Renilla luciferase, cherry-picked, counter-screen for Shn3 inhibitor project, dose response (AID 624133); assay type: functional
[5] = kidney cell line viability loss – HEK293T, luminescence plate reader, powder samples, set 4, cytotoxicity control, dose response (AID 651863); assay type: functional, cell-based; conditions: HEK293
HEK293 [6] = assay: cells; assay type: functional, cell-based; conditions: Homo sapiens
HEK293 [7] = assay: inhibition of NOD1-driven NF-kB reporter – cell-based, luminescence, uHTS, primary screen (AID 1578); assay type: functional; conditions: Homo sapiens
[8] = HGIII-sPLA2 enzyme inhibition potency – biochemical, QFRET, IC50, dose response (AID 743457);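 also: green fluorescence rise as the enzyme cleaves BODIPY PC-A2 in liposomes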
HEK293 [9] = assay: cells; assay type: functional, cell-based; conditions: Homo sapiens; remark: listed apart in the source
[10] = NIH3T3 cell viability loss – ATP luminescence, mouse fibroblasts, counter-screen, dose response (AID 2010); assay type: functional, cell-based;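 also: cells exposed to compound for about 90 hours before reading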
HEK293 [11] = assay: cells; conditions: Homo sapiens
[12] = Trypanosoma cruzi growth suppression in host cells – NIH3T3 host cells, beta-gal luminescence, confirmation (AID 2044); assay type: functional, cell-based;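 also: intracellular parasites grown in NIH/3T3 mouse fibroblasts as host cells; luminescent beta-galactosidase reporter signal from transgenic T. cruzi replicating inside host cells; inhibitors lower the luminescence signal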
HEK293 [13] = assay: cells; assay type: functional, cell-based; conditions: Homo sapiens; remark: listed apart in the source
HEK293 [14] = assay: NOD2 signaling inhibitors in MDP-stimulated cells, cell-based, uHTS, luminescence (AID 2001); assay type: functional; conditions: Homo sapiens
[15] = COV434 cell viability loss – plate reader, dry powder, SA7, cytotoxicity control for PAX8 inhibitor project, dose response (AID 743145); assay type: functional, cell-based
[16] = PAX5 cellular inhibition readout – cell-based, plate reader, dry powder samples, selectivity assay for PAX8 inhibitor project, dose response (AID 743047); assay type: functional;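 also: HEK293 cells carrying a Pax5 driven CD19 promoter luciferase reporter; potency of inhibitors that lower reporter luminescence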
[17] = COV362 cell viability loss – plate reader, dry powder, SA12, cytotoxicity control for PAX8 inhibitor project, dose response (AID 743144); assay type: functional, cell-based
[18] = OV-90 cell viability loss – plate reader, dry powder, SA8, PAX8 inhibitor project, dose response (AID 743149); assay type: functional, cell-based
[19] = inhibitors acting on PAX2 in cells – cell-based, plate reader, dry powder samples, selectivity assay for PAX8 inhibitor project, dose response (AID 743048); assay type: functional;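 also: HEK293 cells carrying a WT1 promoter luciferase reporter driven by expressed Pax2; potency is for inhibition of Pax2 driven reporter signal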
[20] = OVCAR8 cell viability loss – plate reader, dry powder samples, PAX8 project, dose response (AID 743197); assay type: functional, cell-based; conditions: OVCAR-8
[21] = PAX8-dependent cell viability loss – plate reader, dry powder, dose response (AID 743049); assay type: functional, cell-based
Paired box protein Pax-8 = Paired box protein Pax-8 (Homo sapiens, UniProt Q06710); assay: PAX8 transcriptional activity inhibition in RMG-I – RMG-I cells, luciferase, cherry-pick, dose response (AID 687027); assay type: functional, cell-based;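 also: luciferase reporter driven by Pax8 target thyroperoxidase promoter measured by SteadyGlo luminescence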
Sequence of Paired box protein Pax-8 (Q06710 whole entry): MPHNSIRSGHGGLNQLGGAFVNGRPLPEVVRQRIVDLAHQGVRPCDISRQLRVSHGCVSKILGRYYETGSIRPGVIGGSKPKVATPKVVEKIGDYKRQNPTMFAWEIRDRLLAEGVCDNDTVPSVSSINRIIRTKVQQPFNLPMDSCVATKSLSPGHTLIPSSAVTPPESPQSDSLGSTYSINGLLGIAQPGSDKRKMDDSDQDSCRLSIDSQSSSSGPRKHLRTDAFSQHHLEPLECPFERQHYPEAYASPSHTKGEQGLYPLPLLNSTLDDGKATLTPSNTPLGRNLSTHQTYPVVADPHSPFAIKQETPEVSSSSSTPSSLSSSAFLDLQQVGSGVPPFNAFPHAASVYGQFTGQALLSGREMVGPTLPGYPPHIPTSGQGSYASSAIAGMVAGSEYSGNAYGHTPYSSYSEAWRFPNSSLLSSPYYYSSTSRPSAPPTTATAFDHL

[22] = OVCAR-3 cell viability loss – plate reader, dry powder samples, PAX8 inhibitor project, dose response (AID 743044); assay type: functional, cell-based
[23] = target: NAD-dependent protein deacylase sirtuin-5, mitochondrial (Homo sapiens, UniProt Q9NXA8); assay: blockers of sirtuin-5 peptide desuccinylation – biochemical, fluorescence imaging, cherry-pick, set 6, dose response (AID 720597)
Sequence of NAD-dependent protein deacylase sirtuin-5, mitochondrial (Q9NXA8 whole entry): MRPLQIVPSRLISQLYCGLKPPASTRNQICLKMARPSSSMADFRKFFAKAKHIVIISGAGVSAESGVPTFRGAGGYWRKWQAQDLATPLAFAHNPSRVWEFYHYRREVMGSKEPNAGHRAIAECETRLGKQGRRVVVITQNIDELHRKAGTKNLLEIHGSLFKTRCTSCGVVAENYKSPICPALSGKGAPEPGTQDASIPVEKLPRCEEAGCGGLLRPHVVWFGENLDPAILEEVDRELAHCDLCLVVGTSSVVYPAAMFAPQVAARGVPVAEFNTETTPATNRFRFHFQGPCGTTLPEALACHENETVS

[24] = target: Metabotropic glutamate receptor 5 (Rattus norvegicus, UniProt P31424); assay: Identification of a glycine sulfonamide based non-MPEP site positive allosteric potentiator (PAM) of mGlu5 (calcium_assay).; assay type: functional
Sequence of Metabotropic glutamate receptor 5 (P31424 whole entry): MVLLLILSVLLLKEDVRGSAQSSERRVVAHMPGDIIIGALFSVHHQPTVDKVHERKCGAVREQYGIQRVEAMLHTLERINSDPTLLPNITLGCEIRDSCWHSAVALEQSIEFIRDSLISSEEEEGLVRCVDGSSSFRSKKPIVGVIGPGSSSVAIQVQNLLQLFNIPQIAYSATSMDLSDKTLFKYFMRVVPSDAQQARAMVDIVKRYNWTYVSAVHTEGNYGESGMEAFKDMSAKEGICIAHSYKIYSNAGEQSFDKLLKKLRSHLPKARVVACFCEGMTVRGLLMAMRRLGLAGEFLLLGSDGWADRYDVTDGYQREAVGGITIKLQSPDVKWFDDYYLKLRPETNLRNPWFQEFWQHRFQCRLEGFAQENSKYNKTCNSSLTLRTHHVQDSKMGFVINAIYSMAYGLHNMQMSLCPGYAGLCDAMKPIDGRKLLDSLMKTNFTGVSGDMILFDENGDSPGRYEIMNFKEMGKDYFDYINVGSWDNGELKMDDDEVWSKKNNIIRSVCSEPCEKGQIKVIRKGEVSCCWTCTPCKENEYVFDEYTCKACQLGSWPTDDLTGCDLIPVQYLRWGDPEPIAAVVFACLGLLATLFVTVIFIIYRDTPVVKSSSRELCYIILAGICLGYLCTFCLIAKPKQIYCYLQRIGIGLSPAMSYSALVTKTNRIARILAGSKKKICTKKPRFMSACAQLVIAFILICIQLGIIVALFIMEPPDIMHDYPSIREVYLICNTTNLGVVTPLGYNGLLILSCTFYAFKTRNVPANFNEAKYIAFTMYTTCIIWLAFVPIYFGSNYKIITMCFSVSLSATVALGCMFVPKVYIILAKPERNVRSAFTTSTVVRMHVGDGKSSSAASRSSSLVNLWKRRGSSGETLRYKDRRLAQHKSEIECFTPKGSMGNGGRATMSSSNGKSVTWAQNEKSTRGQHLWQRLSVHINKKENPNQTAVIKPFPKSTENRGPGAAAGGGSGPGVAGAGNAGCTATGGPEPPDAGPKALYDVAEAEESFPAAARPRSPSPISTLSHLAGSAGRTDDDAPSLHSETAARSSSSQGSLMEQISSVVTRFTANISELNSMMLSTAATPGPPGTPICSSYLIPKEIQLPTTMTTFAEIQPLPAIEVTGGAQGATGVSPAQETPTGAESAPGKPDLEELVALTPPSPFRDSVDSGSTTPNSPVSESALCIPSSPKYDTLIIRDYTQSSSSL

Caspase-6 = Caspase-6 (Homo sapiens, UniProt P55212); assay: inhibition of CASP6 peptide cleavage – biochemical, VEID-R110 fluorescence, cherry-pick, dose response (AID 720632)
Sequence of Caspase-6 (P55212 24-179 limits assumed): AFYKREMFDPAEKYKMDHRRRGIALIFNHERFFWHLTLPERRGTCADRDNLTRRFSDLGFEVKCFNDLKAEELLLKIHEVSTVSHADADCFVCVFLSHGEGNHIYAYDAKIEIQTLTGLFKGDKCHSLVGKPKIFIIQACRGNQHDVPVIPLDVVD
Sequence of Caspase-6 (P55212 194-293 limits assumed): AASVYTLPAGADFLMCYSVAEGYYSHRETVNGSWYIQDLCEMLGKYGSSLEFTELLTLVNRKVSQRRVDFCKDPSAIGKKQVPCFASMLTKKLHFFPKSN

Caspase-8 = Caspase-8 (Homo sapiens, UniProt Q14790); assay: inhibitors of purified CASP8 protease – biochemical, Z-IETD-R110 fluorescence, cherry-picked samples, selectivity assay for caspase-6 inhibitor project, dose response (AID 743294)
Sequence of Caspase-8 (Q14790 217-374 limits assumed): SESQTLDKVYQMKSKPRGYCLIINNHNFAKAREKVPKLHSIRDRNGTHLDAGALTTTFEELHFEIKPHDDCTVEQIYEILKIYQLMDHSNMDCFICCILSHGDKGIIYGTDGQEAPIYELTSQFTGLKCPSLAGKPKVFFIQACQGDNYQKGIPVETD
Sequence of Caspase-8 (Q14790 385-479 limits assumed): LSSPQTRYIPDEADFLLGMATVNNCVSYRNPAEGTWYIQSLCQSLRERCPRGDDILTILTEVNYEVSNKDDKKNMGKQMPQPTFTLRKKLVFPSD

Caspase-7 = Caspase-7 (Homo sapiens, UniProt P55210); assay: caspase-7 enzyme inhibition, selectivity check – biochemical, DEVD-R110 fluorescence, cherry-pick, selectivity assay for caspase-6 inhibitor project, dose response (AID 743295); assay type: functional
Sequence of Caspase-7 (P55210 24-198 limits assumed): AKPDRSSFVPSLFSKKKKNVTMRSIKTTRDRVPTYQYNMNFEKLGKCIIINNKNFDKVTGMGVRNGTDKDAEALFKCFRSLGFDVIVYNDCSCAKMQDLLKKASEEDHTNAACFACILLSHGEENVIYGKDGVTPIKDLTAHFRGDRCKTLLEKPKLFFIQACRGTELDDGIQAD
Sequence of Caspase-7 (P55210 207-303 limits assumed): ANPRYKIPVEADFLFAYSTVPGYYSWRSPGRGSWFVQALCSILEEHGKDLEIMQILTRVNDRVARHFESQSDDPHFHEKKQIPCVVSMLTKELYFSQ

[25] = inhibitors of TRPM1-promoter reporter in SK-MEL-5 – cell-based, luciferase, dry powder, set 8, MITF inhibitor project, dose response (AID 624430); assay type: functional
[26] = MITF Orthogonal Assay: SK-MEL-5 CTG Assay Measured in Cell-Based System Using Plate Reader - 2084-02_Inhibitor_Dose_DryPowder_Activity_Set7.; assay type: functional
[27] = MITF: Counter assay: A375 proliferation Measured in Cell-Based System Using Plate Reader - 2084-03_Inhibitor_Dose_DryPowder_Activity_Set8.; assay type: functional; conditions: A-375
[28] = target: Disintegrin and metalloproteinase domain-containing protein 17 (Homo sapiens, UniProt P78536); assay: inhibition of ADAM17 substrate cleavage – biochemical, quenched FRET substrate, counter-screen for ADAM10 exosite inhibitor project, dose response (AID 743253)
Sequence of Disintegrin and metalloproteinase domain-containing protein 17 (P78536 whole entry, the tested form may be a part): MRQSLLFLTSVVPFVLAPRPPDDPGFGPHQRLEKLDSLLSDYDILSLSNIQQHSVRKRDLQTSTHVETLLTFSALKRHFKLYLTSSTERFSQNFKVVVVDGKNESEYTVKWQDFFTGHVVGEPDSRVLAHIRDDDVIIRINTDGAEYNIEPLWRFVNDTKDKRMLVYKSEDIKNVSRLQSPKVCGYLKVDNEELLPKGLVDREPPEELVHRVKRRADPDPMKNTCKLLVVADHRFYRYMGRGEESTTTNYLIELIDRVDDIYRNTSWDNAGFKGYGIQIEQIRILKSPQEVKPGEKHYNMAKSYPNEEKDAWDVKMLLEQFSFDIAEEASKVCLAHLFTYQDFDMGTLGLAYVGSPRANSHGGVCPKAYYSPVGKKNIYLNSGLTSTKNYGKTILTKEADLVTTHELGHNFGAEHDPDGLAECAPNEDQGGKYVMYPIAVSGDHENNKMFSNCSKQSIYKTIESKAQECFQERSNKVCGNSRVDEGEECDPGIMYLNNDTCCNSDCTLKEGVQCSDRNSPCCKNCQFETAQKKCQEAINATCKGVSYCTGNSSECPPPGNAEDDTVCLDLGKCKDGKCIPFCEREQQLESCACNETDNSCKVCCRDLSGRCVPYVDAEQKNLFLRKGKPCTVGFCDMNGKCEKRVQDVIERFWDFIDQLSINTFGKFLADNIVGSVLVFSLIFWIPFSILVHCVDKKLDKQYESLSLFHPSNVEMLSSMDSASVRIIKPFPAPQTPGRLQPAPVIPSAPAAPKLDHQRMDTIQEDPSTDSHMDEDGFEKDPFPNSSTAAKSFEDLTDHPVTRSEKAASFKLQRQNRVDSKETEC

[29] = potency of ADAM10 substrate cleavage blockers – biochemical, QFRET, dose response (AID 743254);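 also: ADAM10 enzyme with the DM2 quenched FRET peptide as substrate; EDANS fluorescence gain as the protease cuts the substrate; inhibitor potency against ADAM10 proteolytic activity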
[30] = target: Potassium channel subfamily K member 3 (Homo sapiens, UniProt O14649); assay: inhibition of human KCNK3 channel flux – CHO cells, FluxOR thallium flux, SAR follow-up (AID 652212); assay type: functional
Sequence of Potassium channel subfamily K member 3 (O14649 whole entry): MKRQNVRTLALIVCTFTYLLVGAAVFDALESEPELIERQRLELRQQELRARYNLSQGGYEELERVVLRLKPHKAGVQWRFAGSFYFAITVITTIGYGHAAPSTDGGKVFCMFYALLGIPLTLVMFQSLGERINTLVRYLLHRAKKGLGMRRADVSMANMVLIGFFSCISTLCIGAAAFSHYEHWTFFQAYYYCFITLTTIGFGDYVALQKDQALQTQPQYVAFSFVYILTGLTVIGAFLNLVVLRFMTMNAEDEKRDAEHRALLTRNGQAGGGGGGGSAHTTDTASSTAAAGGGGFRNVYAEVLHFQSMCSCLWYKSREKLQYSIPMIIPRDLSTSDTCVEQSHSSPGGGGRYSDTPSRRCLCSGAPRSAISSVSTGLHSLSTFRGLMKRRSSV

Compound: O=C(Nc1ccc(N2CCOCC2)cc1)c1ccc(Cl)c(S(=O)(=O)N2CCCC2)c1
- AC50 [1]: 69.4 µM (active)
- AC50 [2]: 2.17 µM (active)
- AC50 [3]: 2.65 µM (active)
- AC50 [4]: 22.3 µM (active)

Compound: CCOC(=O)C(C(=O)OCC)c1cc(CNS(=O)(=O)c2ccc(C)cc2C)c2ccccc2n1
- AC50 [5]: > 52 µM (inactive)

Compound: Fc1ccc(NC(S)=Nc2nccs2)cc1
- IC50 (HEK293 [6]): > 20 µM (inactive)
- EC50 (HEK293 [7]): 5.3 µM (active)
- IC50 [8]: > 122 µM (inactive)
- IC50 (HEK293 [9]): > 20 µM (inactive)
- EC50 [10]: > 60 µM (inconclusive)
- IC50 (HEK293 [11]): > 20 µM (inactive)
- EC50 [12]: 2.79 µM (active)
- IC50 (HEK293 [13]): > 20 µM (inactive)
- IC50 (HEK293 [14]): 6.34 µM (inactive)

Compound: N#C[C@H]1[C@H](c2ccc(C#CC3CCCC3)cc2)[C@@H](CO)N1C(=O)Nc1ccc(F)cc1
- AC50 [15]: 20.4 µM (active)
- AC50 [16]: 7.84 µM (active)
- AC50 [17]: 32.1 µM (active)
- AC50 [18]: 29 µM (active)
- AC50 [19]: 7.21 µM (active)
- AC50 [20]: 27.2 µM (active)
- AC50 [21]: 19.1 µM (active)
- AC50 (Paired box protein Pax-8): 5.59 µM (active)
- AC50 [22]: 42.8 µM (active)

- AC50 [23]: > 30 µM (inactive)
Compound: C[C@H](CO)N1C[C@H](C)[C@H](CN(C)Cc2ccncc2)Oc2ncc(C#CCN(C)C)cc2C1=O

- EC50 [24]: > 30 µM (inactive)
Compound: CC(C)(C)NC(=O)CN(c1cc(C(F)(F)F)ccc1Cl)S(C)(=O)=O

Compound: CCCN1CCc2c(sc(NC(=O)C3CCN(S(=O)(=O)c4cccs4)CC3)c2C(N)=O)C1
- AC50 (cells): 5.17 µM (active)

- AC50 (Caspase-6): 4.26 µM (active)
- AC50 (Caspase-8): 46.1 µM (active)
- AC50 (Caspase-7): > 22 µM (inactive)
Compound: CCCCN(C(=O)c1cccc(-n2cccc2)c1)c1c(N)n(Cc2ccccc2)c(=O)[nH]c1=O

Compound: CN1CCN(C2=C(Nc3ccc(I)cc3)C(=O)c3ccccc3C2=O)CC1
- AC50 [25]: 7.32 µM (active)
- AC50 [26]: 8.33 µM (active)
- AC50 [27]: 26 µM (active)

- IC50 [28]: > 69.5 µM (inactive)
- IC50 [29]: 11.7 µM (inactive)
Compound: Cc1cc(C)cc(NS(=O)(=O)c2ccc(NC(=S)NC(=O)c3ccc(Br)o3)cc2)c1

- IC50 [30]: 0.3 µM (active)
Compound: CCOc1ccccc1NC(=O)c1cccc(NC(=O)c2ccc(OC)cc2)c1
